Here are results for seven compounds from patent US20210308117A1, “METHODS OF TREATING VIRAL INFECTIONS USING INHIBITORS OF NUCLEOTIDE SYNTHESIS PATHWAYS” (priority 2020, published 2021).

Read-outs that look alike come from different tables or passages of the source.

The conditions of data set [1]: cited from earlier work.
For the next data set, the system named is SARS-CoV-2. The experiment in a line: microbe, parasite or virus in culture. The format is cell-based.
Data set [2] relates to H1-HeLa cells. The conditions noted are these: human, 3 days.
A further data set deals with Vero E6 cells. The conditions noted are these: remdesivir co-treated with brequinar.
The subject of data set [3] is HuH7 (human hepatocellular carcinoma). The conditions noted are these: cited from earlier work.
The conditions of data set [4]: human, in vivo.
Another data set has as its system RNA virus. The experiment in a line: Daily dosing of brequinar in a subject infected with an RNA virus. The conditions noted are these: once per day for five consecutive days; first peak in brequinar level. The format is in vivo. Here is the method: The mechanism by which administration of a DHODH inhibitor according to a daily dosing regimen inhibits viral replication is illustrated below. […] Throughout the course of the dosing regimen, levels of intracellular pyrimidines, such as uridine, and viral replication are measured.

Another data set in a line: clinical. The conditions noted are these: human, in vivo, po.
For data set [5] the following is noted: in vivo, iv; cited from earlier work.
In data set [6] the test system is 16HBE (human bronchial epithelial). The conditions noted are these: cited from earlier work.
The test system of data set [7] is H1-HeLa cells. The experiment in a line: Cytotoxicity XTT assay in H1-HeLa cells. The conditions noted are these: read-out: TC50, 3 days. In general terms: Formazan colour is commonly taken as a measure of viable cells.
The next data set has as its system Vero76 (monkey kidney). The conditions noted are these: cited from earlier work.
The test system of data set [8] is HeLa (human cervical tumor). The conditions noted are these: cited from earlier work.
Data set [9] in a line: Adverse events in subjects receiving brequinar. The conditions noted are these: i.v. once a week.
For data set [10], the system named is Primary Human Fibroblasts. The conditions noted are these: cited from earlier work.
The next data set deals with Vero (monkey kidney). The conditions noted are these: cited from earlier work.
For data set [11] the following is noted: weekly rapid iv injection; previously treated patients with advanced lung cancer; cited from earlier work.
[12] abbreviates: 1-h i.v. infusion every 3 weeks.

Turning to `Cc1c(-c2ccc(-c3ccccc3F)cc2)nc2ccc(F)cc2c1C(=O)O` [brequinar sodium], in [1] (setting [12]), the “recommended dose for phase II studies, good-risk patients” value is reported as 1,800 mg/m^2 and the “recommended dose for phase II studies, poor-risk patients” value is listed as 1,200 mg/m^2. For the same compound, in data set [1] (i.v. infusion every 3 weeks), the “maximum tolerable dose, good-risk patients” value is reported as 2,250 mg/m^2 and the “maximum tolerable dose, poor-risk patients” value is 1,500 mg/m^2.
By EC50 is commonly meant the concentration needed to bring the measured effect to its halfway point. Regarding `NC(=O)c1ncn([C@@H]2O[C@H](CO)[C@@H](O)[C@H]2O)n1` [ribavirin], the 50% effective concentration (EC50) with SARS-CoV-2 (Severe acute respiratory syndrome coronavirus 2, Vero C1008, SARS-CoV-2, Vero E6, MOI 0.05, read-out: EC50 (50% of the maximum CPE-protection effect of the compound)) is over 50 µM.
For `CCOC(=O)/C=C/[C@H](C[C@@H]1CCNC1=O)NC(=O)[C@@H](CC(=O)[C@@H](NC(=O)c1cc(C)on1)C(C)C)Cc1ccc(F)cc1` [Rupintrivir], in the data set with H1-HeLa cells [2], the CC50 is over 0.1 µM.
With `CCC(CC)COC(=O)[C@H](C)N[P@](=O)(OC[C@H]1O[C@@](C#N)(c2ccc3c(N)ncnn23)[C@H](O)[C@@H]1O)Oc1ccccc1` [remdesivir], the “cytotoxicity by the co-treatment” value in the data set on Vero E6 cells was “No enhanced cytotoxicity”. In the data set with SARS-CoV-2, the “fold increase in activity of remdesivir” value is recorded as over 6.8 fold. The “E(Max)” value in the data set with SARS-CoV-2 (SARS-CoV-2, Vero E6, maximum CPE-protection effect) worked out at 100.
Broadly, the bioavailability is dose-corrected exposure relative to a reference, in per cent. For the compound `Cc1c(-c2ccc(-c3ccccc3F)cc2)nc2ccc(F)cc2c1C(=O)O` [brequinar, 6-fluoro-2-(2′-fluoro-1,1′ biphenyl-4-yl)-3-methyl-4-quinoline carboxylic acid], the CC50 in data set [3] was over 25 µM; in [6], over 50 µM; with H1-HeLa cells [7] it was 0.3 µM; with Vero76 (monkey kidney) it was over 50 µM; in data set [8], over 25 µM; in data set [10], over 50 µM. In addition, the CC50 in the data set on Vero (monkey kidney) is over 50 µM. The “cumulative effect of repeated doses” value in data set [4] was “No cumulative effective of repeated doses”. Also, the intracellular pyrimidine pool result in the data set with RNA virus is listed as “dramatic decrease in the intracellular pyrimidine pool”. The same compound displayed a bioavailability in the data set “clinical” of over 90%. Further, the “recommended dose for phase II evaluation, good risk patients” value in [5] is on record as 250 mg/m^2. Besides, the “recommended dose for phase II evaluation, poor risk patients” value in [5] is 135 mg/m^2. The “Infection: No. of Patients, Max Grade 1” value in [9] was determined as 4. For the same compound, the “Infection: No. of Patients, Max Grade 2” value in data set [9] was determined as 3. For the same compound, in data set [9], the “Infection: No. of Patients, Max Grade 3” value turned out to be 0. In data set [9], the “Infection: No. of Patients, Max Grade 4” value was 0.
On to `CC(C)C[C@H](NC(=O)OCc1ccccc1)C(=O)N[C@@H](CC1CCNC1=O)C(O)S(=O)(=O)[O-].[Na+]` (stereo partly drawn) [GC-376], for which, in the data set with SARS-CoV-2, the “SI50 (Selective Index 50 = CC50/IC50)” value is listed as over 24.5.
Take `NC(=O)c1[nH]nc([C@@H]2O[C@H](CO)[C@@H](O)[C@H]2O)c1O` [pyrazofurin, 5-[(2S,3R,4S,5R)-3,4-dihydroxy-5-(hydroxymethyl)oxolan-2-yl]-4-hydroxy-1H-pyrazole-3-carboxamide]: in data set [11], the therapeutic value entry is on record as “little therapeutic value as a single agent”.
